Tests used:
Format in all cases: cell-based
GPR34 [1] = target: T1, GPR34 (Homo sapiens, UniProt Q9UPC5); assay: MAPK activation: phosphorylation of ERK1/2 in human GPR34-expressed CHO cells (western blotting); settings: PTX 0.1 μg/mL, 20 hours before the assay
T1 construct: expressed in transfected cells
Description: The cells were prepared as described below. Human GPR34-expressed CHO cells were scraped off with 0.05% trypsin-EDTA (GIBCO) and suspended in a medium (MEM-α (GIBCO), supplemented with 10% FBS (GIBCO) and penicillin/streptomycin (BIOWHITTAKER)). After centrifugation, the cells precipitated were suspended in the medium in 2×10^5 cells/ml and a 1 mL aliquot was plated on a 35 mm cell culture dish. After incubation overnight in a CO2 incubator, the medium was aspirated and washed in PBS. Then 1 mL of serum-free medium (MEM-α (GIBCO), supplemented with penicillin/streptomycin (BIOWHITTAKER)) and incubation was performed in a CO2 incubator. Pertussis toxin (hereinafter PTX) was added in a final concentration of 0.1 μg/mL 20 hours before the assay.
The cells were activated as follows. The medium was aspirated and washed in PBS. Thereafter, 500 μL of assay buffer (HBSS (GIBCO), 10 mM HEPES (Dojin Chemical Laboratory)) was added to perform preincubation for 15 minutes at 37° C. The lysoPS solution and […] of PECGF ([…] cell growth factor) solution as a positive control were added. After the mixture was incubated at 37° C., the reaction was terminated by quenching. The assay buffer was aspirated and washed in PBS. Then, 1×SDS sample buffer/DTT was added to the cells to recover the cells. After ultrasonication for 15 seconds, heating at 95° C. for 5 minutes was followed by quenching.
(§1) Detection by SDS-PAGE and western blotting were performed as follows. After separation using 10% Bis-Tris gel (Invitrogen), the gel was transferred to Immuno-Blot PVDF Membrane (Bio-Rad). The membrane was blocked with Block Ace (Dai-Nippon Pharmaceutical) and incubated at room temperature for an hour with a primary antibody (Phospho-p42/p44 MAP Kinase (Thr202/Thr204) Antibody (CST) or p42/p44 MAP Kinase Antibody (CST)) and further incubated at room temperature for an hour using a secondary antibody (Anti-rabbit IgG (CST)). The membrane after the antibody reaction was visualized by chemiluminescence using ECL PLUS (Amersham Biosciences). […]

[2] = tested on: mouse bone marrow-derived mast cells; assay: MAPK activation: phosphorylation of ERK1/2 in mouse bone marrow-derived mast cells (BMMC); settings: PTX 0.1 μg/mL, 4 hours before assay
Description: BMMC was established by collecting bone marrow fluid from the femur of male BALB/c mouse (Japan SLC), rinsing in RPMI1640 (Nikken Bio Medical Laboratory) and then incubating in a medium (RPMI1640, 50% WEHI-3 culture supernatant, 10% FBS (GIBCO), penicillin/streptomycin (BIOWHITTAKER), Non-Essential amino acids (GIBCO)) for 4 weeks. The cells were incubated in a CO2 incubator immediately before assay. Pertussis toxin (hereinafter PTX) was added to the cells in a final concentration of 0.1 μg/mL 4 hours before assay. BMMC was washed in ice-chilled assay buffer (Tyrode Buffer, 0.01% fatty acid free-BSA (SIGMA), 1 mM CaCl2, 1 mM MgCl2), and suspended in 2×10^6 cells/ml. The suspension was dispensed in a 1.5 mL tube followed by preincubation for 15 minutes at 37° C. The lysoPS solution and A23187 solution (Wako Pure Chemicals) as a positive control were added in equimolar amounts. After incubation at 37° C., the reaction was terminated by quenching. The cells were precipitated by centrifugation and the assay buffer was aspirated. After washing in PBS, 1×SDS sample buffer/DTT was added to the cells to lyse the cells. After ultrasonication for 15 seconds, the sample was heated at 95° C. for 5 minutes followed by quenching.
Detection by SDS-PAGE and western blotting were performed as follows. After separation using 10% Bis-Tris gel (Invitrogen), the gel was transferred to Immuno-Blot PVDF Membrane (BIO-RAD). The membrane was blocked with Block Ace (Dai-Nippon Pharmaceutical) and incubated at 4° C. overnight with a primary antibody (Phospho-p42/p44 MAP Kinase (Thr202/Thr204) Antibody (CST) or p42/p44 MAP Kinase Antibody (CST)) and further incubated at room temperature for an hour using a secondary antibody (Anti-rabbit IgG (CST)). The membrane after the antibody reaction was visualized by chemiluminescence using ECL PLUS (Amersham Biosciences). Detection and image analysis were performed using LAS1000 (FUJI FILM).

[3] = tested on: rat peritoneal mast cells; assay: MAPK activation: phosphorylation of ERK1/2 in rat peritoneal mast cells (RPMC); settings: PTX 0.1 μg/mL, 4 hours before assay
Description: Pertussis toxin (hereinafter PTX) was added to the cells in a final concentration of 0.1 μg/mL 4 hours before assay. RPMC was washed in ice-chilled assay buffer (Tyrode Buffer, 0.01% fatty acid free-BSA (SIGMA), 1 mM CaCl2, 1 mM MgCl2), and suspended in 2×10^6 cells/ml. The suspension was dispensed in a 1.5 mL tube followed by preincubation for 15 minutes at 37° C. The lysoPS solution was added thereto in an equimolar amount. After incubation at 37° C., the reaction was terminated by quenching. The cells were precipitated by centrifugation and the assay buffer was aspirated. After washing in PBS, 1×SDS sample buffer/DTT was added to the cells to lyse the cells. After ultrasonication for 15 seconds, heating at 95° C. for 5 minutes was followed by quenching.
as §1, with “PVDF Membrane (BIO-RAD). The membrane” for “PVDF Membrane (Bio-Rad). The membrane”, “incubated at 4° C. overnight with a” for “incubated at room temperature for an hour with a”, “an hour with a secondary” for “an hour using a secondary”

GPR34 [4] = target: T1, GPR34; assay: Intracellular cAMP production inhibitory activity on GPR34-expressed CHO cells (forskolin stimulated); settings: phosphatidylserine in a higher concentration
Description: The GPR34-expressed CHO cells prepared in (1-2) described above and selected in (1-3) described above were plated on a 24-well plate in 6×10^4 cells/well followed by incubation for 48 hours. The cells were washed with αMEM medium (pH 7.5) containing 0.2 mM 3-isobutylmethylxanthine, 0.05% BSA and 20 mM HEPES (hereinafter αMEM medium (pH 7.5) containing 0.2 mM 3-isobutylmethylxanthine, 0.05% BSA and 20 mM HEPES is referred to as the reaction buffer). Thereafter, 0.5 mL of the reaction buffer was added and the mixture was kept warm for 30 minutes in an incubator. The reaction buffer was removed and 0.25 mL of fresh reaction buffer was replenished to the cells. Then, 0.25 mL of the reaction buffer containing a sample and 2 μM forskolin was added to the cells, followed by reacting at 37° C. for 30 minutes. The reaction solution was removed and 0.5 mL of the cell lysis solution attached to cAMP EIA kit (Applied Biosystems) to extract cAMP in the cells. The cAMP level in the extract was quantified using the same kit. Based on this measurement data, the cAMP production inhibitory activity was calculated based on the equation shown below and expressed in terms of percentage to the control group. […]

[5] = tested on: other receptor expression cells; assay: cAMP production inhibitory activity on other receptor expression cells

T1 sequence (Q9UPC5 whole entry): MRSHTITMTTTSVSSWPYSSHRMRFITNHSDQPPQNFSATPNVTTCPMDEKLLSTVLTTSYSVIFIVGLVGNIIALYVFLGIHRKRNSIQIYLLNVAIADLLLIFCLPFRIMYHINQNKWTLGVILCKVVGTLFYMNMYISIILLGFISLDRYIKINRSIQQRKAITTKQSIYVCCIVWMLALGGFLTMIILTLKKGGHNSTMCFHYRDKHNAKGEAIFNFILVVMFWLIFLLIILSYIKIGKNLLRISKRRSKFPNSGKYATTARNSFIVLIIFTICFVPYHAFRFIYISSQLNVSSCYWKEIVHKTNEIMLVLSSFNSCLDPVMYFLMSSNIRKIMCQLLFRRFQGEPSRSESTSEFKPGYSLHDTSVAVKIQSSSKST

cAMP production inhibitory activity (GPR34 [4])	Substance	effect of PTX pretreatment on phosphorylation of ERK1/2 by lysoPS (GPR34 [1])	effect of PTX pretreatment on phosphorylation of ERK1/2 by lysoPS [2]	effect of PTX pretreatment on phosphorylation of ERK1/2 by lysoPS [3]	cAMP production inhibitory action on other receptor expression cells [5]
	Pertussis toxin [PTX]	attenuated to the level below the detection limit	attenuated to the level below the detection limit	attenuated to the level below the detection limit	
marked activities	phosphatidylserine				not noted

From patent US7951548B2, “IL-13 production inhibitor” (Takeda Pharmaceutical Company Limited, priority 2005, dated 2011)
